Data reported in US5387516A, “Heat stable debranching enzyme from a Bacillus microorganism” (priority 1992, dated 1995).
Like-named read-outs stand apart in the source and are kept apart here.

Assays:
Format in all cases: biochemical
[1] = test system: DB-250 (Amano Pharmaceutical Co., Ltd.), Enzyme B, debranching enzyme from Bacillus sectorramus
Protocol: (§1) To 0.5 ml of a 1% pullulan solution in a 100 mM McIlvaine's buffer solution (pH=5.0) was added 0.5 ml of an enzyme solution, and the system was allowed to react at 50° C. for 30 minutes. The reducing power thus produced was quantitatively determined through a 3,5-dinitrosalicylic acid reaction (the DNS method; cf. Borel et al., Helv. Chim. Acta., 35, 115 (1952)). The activity producing reducing power corresponding to 1 μmol of maltotriose for 1 minute was taken as one unit.

[2] = test system: Promozyme (Novo Nordisk A/S), Enzyme A, debranching enzyme from Bacillus acidopullulyticus
Protocol: as §1

[3] = test system: debranching enzyme (α-1,6-glucosidase) of the invention from Bacillus sp. APC-9603
Protocol: as §1

[4] = Table 5, conditions not restated
[5] = Table 5, inhibitor 1 mM, 50 mM acetic acid buffer pH 5.0, 40° C., 30 minutes
[6] = inhibitor at final concentration 1 mM, 50 mM acetic acid buffer pH 5.0, 40° C., 30 minutes, no inhibitor = 100

| Compound | Influence of Inhibitor (residual activity), Enzyme B [1] | Influence of Inhibitor (residual activity), Enzyme A [2] | Influence of Inhibitor (residual activity), Enzyme of Invention ([3]; pH 5) | Inhibition (in words) ([3]; pH 5) | Residual Activity ([3]; pH 5) | Inhibition (in words), Enzyme B [1] | Influence of Inhibitor (residual activity), Enzyme B [1, 4] | Inhibition (in words), Enzyme A [2] | Influence of Inhibitor (residual activity), Enzyme A [2, 4] | Influence of Inhibitor (residual activity), Enzyme of Invention [3, 5] | Inhibition (in words) ([3]; inhibitor 1 mM, pH 5.0, 40° C., 30 minutes) | Residual Activity [3, 6] |
| --- | --- | --- | --- | --- | --- | --- | --- | --- | --- | --- | --- | --- |
| O=C(O)CN(CCN(CC(=O)O)CC(=O)O)CC(=O)O [EDTA] | 93% | 129% | 90% | Slightly inhibited | 90% |  |  |  |  |  |  |  |
| O=C(O)CI [MIA, monoiodoacetic acid] | 67% | 68% | 105% | Non-inhibited | 105% |  |  |  |  |  |  |  |
| O=C(O)c1cc[c]([Hg][OH])cc1 [p-CMB, p-mercuri-benzoic acid] |  |  |  |  |  | inhibited by p-CMB to a large extent | 27% | inhibited by p-CMB to a large extent | 14% | 81% | Slightly inhibited | 81% |
| CCN1C(=O)C=CC1=O [N-EMI, N-ethylmaleimide] |  |  |  | Non-inhibited |  |  | 66% |  | 69% | 104% |  | 104% |
